Key:
[1] = molecular target: T1, human μ opiate receptor (Homo sapiens, UniProt P35372); assay: Affinity for the human μ opiate receptor ([3H]-naloxone displacement, CHO-K1 receptor membrane preparation, SPA); type: binding; conditions: test concentration of 1 μM; read-out: μ (binding on the μ opioid receptor, % inhibition)
T1 construct: purchased PerkinElmer Life Sciences, Zaventem, Belgium RB-HOM; host or cells: CHO-K1 cells (membrane preparation)
Method in brief: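 Membranes from CHO-K1 cells expressing the human μ opiate receptor (15-40 μg protein per well) were incubated with test compound, 1 nmol/l [3H]-naloxone and WGA-SPA beads in 50 mmol/l Tris-HCl with 0.06% BSA for 90 minutes at room temperature. Values are % inhibition of specific binding at 1 μmol/l.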

[2] = molecular target: T2, serotonin (5-HT) reuptake (Rattus norvegicus, UniProt P31652); assay: Inhibition of serotonin (5HT) reuptake in synaptosomes from rat brain; type: biochemical; conditions: test concentration of 10 μM; read-out: 5-HT (inhibition of reuptake of serotonin, % inhibition)
T2 construct: synaptosomes are freshly isolated from areas of the rat brain; from tissue; host or cells: rat brain synaptosomes (P2 fraction)
T2 sequence (P31652 whole entry): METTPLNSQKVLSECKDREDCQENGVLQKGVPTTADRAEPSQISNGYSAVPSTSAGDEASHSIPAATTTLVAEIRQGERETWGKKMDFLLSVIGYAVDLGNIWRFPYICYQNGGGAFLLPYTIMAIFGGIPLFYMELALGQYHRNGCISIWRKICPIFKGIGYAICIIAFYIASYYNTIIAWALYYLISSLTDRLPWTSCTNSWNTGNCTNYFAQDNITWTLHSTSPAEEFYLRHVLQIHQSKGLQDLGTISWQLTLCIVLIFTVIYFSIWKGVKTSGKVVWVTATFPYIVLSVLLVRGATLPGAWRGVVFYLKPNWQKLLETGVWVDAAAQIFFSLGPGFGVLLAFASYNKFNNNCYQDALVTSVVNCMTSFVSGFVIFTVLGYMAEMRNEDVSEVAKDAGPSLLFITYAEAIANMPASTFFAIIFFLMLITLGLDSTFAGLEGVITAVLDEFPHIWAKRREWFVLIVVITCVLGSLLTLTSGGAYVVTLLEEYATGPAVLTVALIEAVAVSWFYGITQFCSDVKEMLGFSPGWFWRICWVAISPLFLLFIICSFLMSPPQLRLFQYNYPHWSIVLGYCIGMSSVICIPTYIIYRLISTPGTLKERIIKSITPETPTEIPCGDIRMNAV
Method in brief: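 Freshly isolated rat brain synaptosomes (P2 fraction) used for 5-HT reuptake. Test compound at 10 μM, activity given as % inhibition.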

T1 sequence (P35372 whole entry): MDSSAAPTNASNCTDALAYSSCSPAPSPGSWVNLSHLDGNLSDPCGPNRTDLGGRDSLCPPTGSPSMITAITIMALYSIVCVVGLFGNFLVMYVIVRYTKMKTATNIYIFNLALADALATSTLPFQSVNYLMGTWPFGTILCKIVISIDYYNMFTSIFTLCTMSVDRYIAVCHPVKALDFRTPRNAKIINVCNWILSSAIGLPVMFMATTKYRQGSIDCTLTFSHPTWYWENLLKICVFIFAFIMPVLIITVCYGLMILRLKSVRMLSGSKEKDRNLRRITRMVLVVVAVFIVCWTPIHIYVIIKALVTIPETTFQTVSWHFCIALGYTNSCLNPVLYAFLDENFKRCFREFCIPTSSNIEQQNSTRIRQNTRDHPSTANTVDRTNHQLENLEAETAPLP

Row | Compound | inhibition at 1 µM [1] [%] | inhibition at 10 µM [2] [%]
1 | COc1cc(C)c(S(=O)(=O)N2CCC(OCC(=O)NCC3CCC(C(c4ccccc4)N(C)C)CC3)C2)c(C)c1C (stereo not drawn) [Example 44, N-((4-((dimethylamino)(phenyl)methyl)cyclohexyl)methyl)-2-(1-(4-methoxy-2,3,6-trimethylphenylsulfonyl)pyrrolidin-3-yloxy)acetamide] | 96 | 94
2 | COc1cc(C)c(S(=O)(=O)N2CCC(CCOCC(=O)NCCC3CCC(C(c4cccs4)N(C)C)CC3)CC2)c(C)c1C (stereo not drawn) [Example 75, N-(2-(4-((dimethylamino)(thiophen-2-yl)methyl)cyclohexyl)ethyl)-2-(2-(1-(4-methoxy-2,3,6-trimethylphenylsulfonyl)piperidin-4-yl)ethoxy)acetamide] | 92 | 96
3 | COc1ccc(S(=O)(=O)N(C)CCOCC(=O)NC2CCC(C(c3cccs3)N(C)C)CC2)cc1 (stereo not drawn) [Example 73, N-(4-((dimethylamino)(thiophen-2-yl)methyl)cyclohexyl)-2-(2-(4-methoxy-N-methylphenylsulfonamido)ethoxy)acetamide] | 90 | 77
4 | CN(C)C(c1cccs1)C1CCC(NC(=O)COCCN(C)S(=O)(=O)c2ccc(Cl)cc2)CC1 (stereo not drawn) [Example 83, 2-(2-(4-chloro-N-methylphenylsulfonamido)ethoxy)-N-(4-((dimethylamino) (thiophen-2-yl)methyl)cyclohexyl)acetamide] | 94 | 89
5 | Cc1ccc(S(=O)(=O)N(C)CCOCC(=O)NCCC2CCC(C(c3cccs3)N(C)C)CC2)cc1 (stereo not drawn) [Example 82, N-(2-(4-((dimethylamino)(thiophen-2-yl)methyl)cyclohexyl)ethyl)-2-(2-(N,4-dimethylphenylsulfonamido)ethoxy)acetamide] | 95 | 85
6 | CN(C)C(c1cccs1)C1CCC(CNC(=O)COC2CCN(S(=O)(=O)c3ccc(Cl)cc3)C2)CC1 (stereo not drawn) [Example 54, 2-(1-(4-chlorophenylsulfonyl)pyrrolidin-3-yloxy)-N-((4-((dimethylamino)(thiophen-2-yl)methyl)cyclohexyl)methyl)acetamide] | 95 | 84
7 | COc1cc(C)c(S(=O)(=O)N(C)CCOCC(=O)NC2CCC(C(c3ccccc3)N(C)C)CC2)c(C)c1C (stereo not drawn) [Example 80, N-(4-((dimethylamino) (phenyl)methyl)cyclohexyl)-2-(2-(4-methoxy-N,2,3,6-tetramethylphenylsulfonamido)ethoxy)acetamide] | 93 | 84
8 | COc1cc(C)c(S(=O)(=O)N(C)CCOCC(=O)NCC2CCC(C(c3cccs3)N(C)C)CC2)c(C)c1 (stereo not drawn) [Example 69, N-((4-((dimethylamino)(thiophen-2-yl)methyl)cyclohexyl)methyl)-2-(2-(4-methoxy-N,2,6-trimethylphenylsulfonamido)ethoxy)acetamide] | 96 | 86
9 | COc1cc(C)c(S(=O)(=O)N2CCCC(OCC(=O)NCC3CCC(C(c4cccs4)N(C)C)CC3)C2)c(C)c1C (stereo not drawn) [Example 60, N-((4-((dimethylamino)(thiophen-2-yl)methyl)cyclohexyl)methyl)-2-(1-(4-methoxy-2,3,6-trimethylphenylsulfonyl)piperidin-3-yloxy)acetamide] | 95 | 92

Reference: patent US8106055B2, “Substituted amide compounds” (Gruenenthal GmbH, priority 2007, dated 2012)
